# Values quoted from earlier work as cited in patent US20010014694A1, “Substituted phenyl compounds and derivatives thereof that modulate the activity of endothelin” (priority 1996, published 2001).
# Read-outs that look alike come from different tables or passages of the source.
# What was measured:
# ETA receptor = conditions: read-out: IC50, inhibition of 125I-labelled endothelin-1 binding, cited from earlier work
# ETB receptors = conditions: tissues in which ETB receptors predominate; read-out: fails to inhibit binding to receptors at concentrations up to; cited from earlier work
# isolated vascular strips = conditions: read-out: EC50, contractile agent; cited from earlier work
# [1] = system: non-cardiovascular tissues, such as kidney, adrenal gland, and cerebellum (ETB receptors predominate); conditions: cited from earlier work
# [2] = system: cardiovascular tissues (ETA receptors predominate); conditions: cited from earlier work
Substance,IC50 (ETA receptor; aortic smooth muscle) [nM],IC50 (ETA receptor; cultured aortic smooth muscle cells) [nM],IC50 (ETA receptor; ventricle membranes) [nM],IC50 (ETB receptors) [nM],EC50 (isolated vascular strips) [nM],extent of inhibition of 125I-labelled endothelin-1 binding [1],potency of inhibition of 125I-labelled endothelin-1 binding relative to endothelin-3 [2]
cyclo(D-Glu-L-Ala-allo-D-Ile-L-Leu-D-Trp) [BE-18257B],1400,500,800,> 100000,–,–,–
"endothelin-1: endothelium-derived potent twenty-one amino acid peptide vasoconstrictor, one of three endothelin isopeptides",–,–,–,–,0.4,to the same extent,forty to seven hundred times more potently
